# Measured values published in PubChem BioAssay (NCI).
# Several values for one entry are separate records, joined by “and”; a condition that tells them apart may be missing. Equal values may be shown once.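 Assay format: 96-well plates, 48-hour exposure. Here, GI50 denotes the concentration required for 50% inhibition of growth. TGI marks complete inhibition of growth.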
# Key:
# Test in all cases: inhibition of tumour cell growth, NCI panel, 48 h
# [1] = test system: A549 NSCLC
# [2] = test system: HCC-2998 colon
# [3] = test system: HCT-15 colon
# [4] = test system: K-562 leukemia
# [5] = test system: KM12 colon
# [6] = test system: M14 melanoma
# [7] = test system: NCI-H226 lung
# [8] = test system: NCI-H23 lung
# [9] = test system: RXF 393 renal
# [10] = test system: UACC-257 melanoma
SMILES,GI50 [1] [µM],TGI [1] [µM],GI50 [2] [µM],TGI [2] [µM],GI50 [3] [µM],TGI [3] [µM],GI50 [4] [µM],TGI [4] [µM],GI50 [5] [µM],TGI [5] [µM],GI50 [6] [µM],TGI [6] [µM],GI50 [7] [µM],TGI [7] [µM],GI50 [8] [µM],TGI [8] [µM],GI50 [9],TGI [9] [µM],GI50 [10] [µM],TGI [10] [µM]
COc1ccc(C2=NOC3=c4ccccc4=CSC3=C2c2ccccc2)cc1,> 100,> 100,> 100,> 100,22.3,> 100,51.2,> 100,57.7,> 100,26.3,> 100,20.2,79.8,46.2,> 100,22.2 µM,63.7,69.6,> 100
COc1ccccc1CNCCCN1C(=O)c2ccc3c4c(ccc(c24)C1=O)C(=O)N(CCCNCCCCN)C3=O,0.29,1.06,0.171,0.417,1.85,10.8,0.298,1.27,0.332,1.29,0.355,1.15,0.828,2.55,0.222,0.595,0.34 µM,1.41,0.166,0.317
COc1ccc(-c2nc3sccn3c2/C=C/C(=O)c2cc(OC)c(OC)c(OC)c2)cc1,2.92,> 22.9,3.03,14.4,3.33,> 83,2.43,> 23.9,2.56,7.75,2.52,> 27.6,2.95,> 35,2.49,> 28.7,3.09 µM,> 100,15.2,78.7
Cc1ccccc1NC(=O)C(=O)CC(=O)c1sc(-n2nc(-c3ccccc3)cc2-c2ccccc2)nc1C,,> 100,,> 100,,> 100,,> 100,,> 100,,> 100,,> 100,,> 100,,> 100,,> 100
COC(=O)C1C(=O)NC2(C)CC1c1ccccc1O2 (stereo not given),,> 100,,> 100,,> 100,,> 100,,> 100,,> 10,,> 100,,> 100,,> 100,,> 100
C#CCN(CCCOc1ccc(Cl)cc1Cl)CCCSC(=O)CCCCCN1/C(=C\C=C2/CCCC(/C=C/C3=[N+](CCCCCC(=O)[O-])c4ccccc4C3(C)C)=C2Cl)C(C)(C)c2ccccc21,3.22,13.2,1.78,3.51,4.12,21.9,0.667,> 100,1.56,4.46,1.61,3.36,1.72,4.11,1.94,5.09,1.66 µM,3.37,1.8,4.03
COc1ccc(N=C2C(=O)Nc3ccc(Br)cc32)cc1,,> 100,,37.4,,44,,33.2,,29.4,,37.2,,35.5,,45,,36.9,,48.1
O=C(O)c1cc2ccc(Cl)cc2c(O)c1C1=CCCCC1,,> 100,,> 100,,> 100,,> 100,,> 100,,> 100,,68.3,,95.9,,> 100,,88.5
c1ccc2[nH]c(-c3cscn3)nc2c1,,> 100,,> 100,,> 100,,> 100,,> 100,,> 100,,> 100,,> 100,> 100 µM and 49.1 µM,> 100,,> 100
CC(=O)OCCc1cc2ccccc2oc1=O,,> 100,,> 100,,> 100,,> 100,,> 100,,> 100,,> 100,,> 100,,> 100,,> 100
COc1ccc2c(c1)CCC1C2CCC2(C)C(NC(=O)CCCCC3CCSS3)CCC12 (stereo not given),32.5,> 100,30.7,> 100,8.21,> 100,5.81,> 100,4.54,> 100,16.8,> 100,> 100,> 100,> 100,> 100,27 µM,> 100,31.8,> 100
C=C(c1ccc(C(=O)NCCCn2ccnc2)cc1)c1cc2c(cc1C)C(C)(C)CCC2(C)C,1.14,16.4,0.419,3.85,0.118,17,0.651,> 100,0.37,> 50.6,0.0627,2.04,2.1,7.94,3.69,66.5,1.71 µM,4.71,,7.53
O=C(Nc1c(Cl)cc([N+](=O)[O-])cc1Cl)C(=O)C(C(=O)c1ccncc1)C1OC(=O)c2ccccc21 (stereo not given),,> 100,,> 100,,> 100,,> 100,,> 100,,> 100,,> 100,,> 100,,> 100,,> 100
Nc1nc2c([nH]1)c1[nH]c3ccccc3c1c1[nH]c3ccccc3c21,17.1,33.4,2.26,5.75,13.6,31.4,2.23,5.09,6.91,21.2,14.4,27.8,19.8,45.5,13.7,29.5,6.08 µM,19.4,18.5,33.4
Fc1nc(Sc2ncnc3nc[nH]c23)nc(-c2c3ccccc3c3sc4ccccc4n23)n1,,> 100,,> 100,,> 100,,> 100,,> 100,,> 100,,> 100,,> 100,,> 100,,> 100
